Test results from patent US20250066289A1, “BIGUANIDE DERIVATIVE OF IBUPROFEN AND PROCESS OF PREPARATION THEREOF” (BVDU's Poona College of Pharmacy, priority 2023, published 2025).

Legend:
[1] = tested on: STZ induced diabetic rats; assay: STZ induced diabetic study, fasting blood glucose; format: in vivo, Male Wistar rats; details: for Fasting Blood Glucose (FBG): Mean ± SD, n=4
Experimental: (§1) Male Wistar rats weighing between 200 and 250 g were used for the studies. The animals were kept in animal cages with free access to standard pellet food and water at a temperature of 23±2° C., a 12-hour cycle of darkness and light, and a relative humidity of roughly 45 to 65%. The Institutional Animal Ethics Committee (IAEC) authorized the protocol, and the animal experiments were carried out in accordance with it as well as the Indian regulations established by the Committee for the Purpose of Control and Supervision of Experimental Animals (CPCSEA), New Delhi.
An intraperitoneal injection of streptozotocin (STZ, 55 mg/kg of body weight) was used to cause diabetes. STZ was dissolved in 0.1 mol/L citrate buffer, pH 4.5, and injected into the peritoneal cavity. The fasting blood glucose concentration (FBG) was used for diagnosis of diabetes. Animals having blood glucose level greater than 16.7 mmol/L after 24 hours were deemed diabetic. These animals were further selected for the study.
The animals (n=4) were divided into four groups. • Group 1: treated with vehicle (distilled water) vehicle control; • Group 2: treated with vehicle (drinking water and STZ) diabetic control; • Group 3: treated with metformin (10 mg/kg body weight/day in drinking water) diabetic test; and • Group 4: treated with Biguanide of Ibuprofen (10 mg/kg body weight/day in drinking water) diabetic test.
The treatment with metformin and Biguanide of Ibuprofen was given for 14 days. And at the end of treatment fasting blood glucose estimation was performed.

CAR-induced paw edema = CAR-induced paw edema anti-inflammatory study; format: in vivo, Male Wistar rats; details: for water volume displacement digital plethysmometer (paw volume): 5 mg/kg i.p., Mean ± SD, n=4
Experimental: as §1
In the second experiment, the anti-inflammatory effect of Biguanide of Ibuprofen in comparison Ibuprofen was assessed by CAR-induced paw edema. The experimental groups were designed as follows (n=4 per group): • Group 1. Control group: 100 μl saline (i.d.)+saline (i.p.), • Group 2. CAR group: 100 μl CAR (i.d.)+saline (i.p.), • Group 3. Ibuprofen 5 mg/kg group: 100 μl CAR (i.d.)+5 mg/kg Ibuprofen (i.p.), • Group 4. Biguanide of Ibuprofen 5 mg/kg group: 100 μl CAR (i.d.)+5 mg/kg Biguanide of Ibuprofen (i.p.),
Carrageenan (100 μl) was injected by i.d. route per rat into the right hind paw. The rats were injected with i.p. Ibuprofen (5 mg/kg), and Biguanide of Ibuprofen (5 mg/kg) immediately after CAR injection. Saline was given to the control group. The paw volume was measured plethysmographically at 0 min, 30 min, 60 min, 90 min, 120 min, 180 min and 240 min. The 0th min reading was considered as the initial paw size of the rats. The change in the paw volume in the test groups was compared with the untreated control groups. The reduction in paw volume (mL) with the help of water plethysmometer was recorded.

[2] = Day 7, 10 mg/kg body weight/day in drinking water
[3] = Day 14, 10 mg/kg body weight/day in drinking water

SMILES	Effect on FBG levels in diabetic rats (in words) ([1]; 10 mg/kg/day, 14 days)	Fasting Blood Glucose (FBG) [1, 2] [mmol/L]	Fasting Blood Glucose (FBG) [1, 3] [mmol/L]	Reduction in FBG compared to metformin (in words) ([1]; both 10 mg/kg/day, 14 days)	water volume displacement digital plethysmometer (paw volume) (CAR-induced paw edema; 0 min (initial paw size)) [mL]	water volume displacement digital plethysmometer (paw volume) (CAR-induced paw edema; 30 min after CAR) [mL]	water volume displacement digital plethysmometer (paw volume) (CAR-induced paw edema; 60 min after CAR) [mL]	water volume displacement digital plethysmometer (paw volume) (CAR-induced paw edema; 90 min after CAR) [mL]	water volume displacement digital plethysmometer (paw volume) (CAR-induced paw edema; 120 min after CAR) [mL]	water volume displacement digital plethysmometer (paw volume) (CAR-induced paw edema; 180 min after CAR) [mL]	water volume displacement digital plethysmometer (paw volume) (CAR-induced paw edema; 240 min after CAR) [mL]	Paw volume compared to Ibuprofen (in words) (CAR-induced paw edema; CAR-induced paw edema, both 5 mg/kg i.p.)
CC(C)Cc1ccc(C(C)C(=O)NNC(=N)NC(=N)N)cc1 (centres unmarked) [Biguanide of Ibuprofen, N-carbamimidoyl-2-(2-(4-isobutylphenyl)propanoyl) hydrazine-1-carboximidamide]	significant lowering of FBG levels	22.93 ± 0.97	6.38 ± 0.86	more marked reduction in FBG when compared to metformin	0.692 ± 0.012	0.853 ± 0.016	0.940 ± 0.013	0.875 ± 0.021	0.815 ± 0.015	0.740 ± 0.018	0.710 ± 0.011	significantly decreased paw volume, when compared to that of the Ibuprofen
CN(C)C(=N)N=C(N)N [metformin, 3-(diaminomethylidene)-1,1-dimethylguanidine, reference compound]	–	22.77 ± 1.12	10.27 ± 1.21	–	–	–	–	–	–	–	–	–
